How the values were obtained:
ETBR total protein = ETBR total protein in melanoma cell lines, Western blot; format: cell-based, human; conditions: 24 h
Experimental: Melanoma cell lines UACC-257X2.2, A2058, COLO 829, IPC-298 (ATCC) were treated with a BRAF inhibitor drug (“BRAFi”), specifically RG7204 at varying concentrations by adding the appropriate drug volume to cells in culture for 24 h on four-well dishes.
To test whether the increase in ETBR transcripts due to BRAFi treatment also results in any changes in ETBR total protein levels, Western blot experiments were performed on the same cell lines treated with BRAFi RG7204 as described above. For Western blotting, the following reagents were used: for detection of proteins: an anti-ETBR in-house generated monoclonal antibody 1H1.8.5, anti-Phospho-p44/42 MAPK (Erk1/2) (Thr202/Tyr204) antibody (9101, Cell Signaling Technology), anti-p44/42 MAPK (Erk1/2) antibody (9102, Cell Signaling Technology) and as controls, a rabbit polyclonal anti-GAPDH (glyceraldehyde-3-phosphate dehydrogenase) antibody (PA1-987; Affinity Bioreagents) and mouse monoclonal anti-β-Tubulin antibody (556321, BD Pharmingen). The results for UACC-257X2.2 are shown in FIG. 4B, the results for A2058 are shown in FIG. 8B, the results for COLO 829 are shown in FIG. 6B and the results for IPC-298 are shown in FIG. 10.
Melanoma cell lines A2058, COLO 829, SK23-MEL and IPC-298 (ATCC) were treated with a MEK inhibitor drug (“MEKi-973” or “MEKi-623”), at varying concentrations (0 μM, 0.01 μM, 0.1 μM or 1 μM) by adding the appropriate drug volume to cells in culture for 24 h on four-well dishes.
To test whether the increase in ETBR transcripts due to MEKi treatment also results in any changes in ETBR total protein levels, Western blot experiments were performed on cell lines COLO829 (BRAF^V600E), A2058 (BRAF^V600E), SK23-MEL (BRAF^WT/RAS^WT), or IPC-298 (BRAF^WT/RAS^[…]) which were treated with MEKi-973 as described above. For Western blotting, the following reagents were used: for detection of proteins: an anti-ETBR in-house generated monoclonal antibody 1H1.8.5, anti-Phospho-p44/42 MAPK (Erk1/2) (Thr202/Tyr204) antibody (9101, Cell Signaling Technology), anti-p44/42 MAPK (Erk1/2) antibody (9102, Cell Signaling Technology) and as controls, a rabbit polyclonal anti-GAPDH (glyceraldehyde-3-phosphate dehydrogenase) antibody (PA1-987; Affinity Bioreagents) and mouse monoclonal anti-β-Tubulin antibody (556321, BD Pharmingen). The results for A2058 are shown in FIG. 15A treated with MEKi-623 and 15B treated with MEKi-973, the results for COLO 829 are shown in FIG. 12A treated with MEKi-623 and 12B treated with MEKi-973, the results for SK23-MEL are shown in FIG. 19A treated with MEKi-623 and 19B treated with MEKi-973, and the results for IPC-298 are shown in FIG. 22A treated with MEKi-623 and 22B treated with MEKi-973.

A2058 melanoma xenograft = test: In vivo efficacy, subcutaneous melanoma xenograft, tumor volume / % TGI; design: species or system mice; conditions: for % TGI Single Agent BRAFi vs. control: A2058
Experimental: Next, efficacy studies were performed using the melanoma cells lines in the xenografts mouse models described above. All studies were conducted in accordance with the Guide for the Care and Use of Laboratory Animals (Ref: Institute of Laboratory Animal Resources (NIH publication no. 85-23), Washington, D.C.: National Academies Press; 1996). 10- to 14-week-old female CRL Nu/Nu or NCr nude mice from Charles River Laboratories were inoculated subcutaneously in the dorsal right flank with either 5×10^6 UACC-257X2.2 cells in HBSS with Matrigel or 5×10^6 A2058 cells in HBSS with Matrigel. When tumor volumes reached approximately 200 mm^3 (day 0), animals were randomized into groups of 10 each.
For single agent efficacy studies, the anti-ETBR ADC candidate Hu5E9v1-ADC was administered as a single intravenous (IV) injection on day 0 at 1 mpk, 3 mpk, or 6 mpk (mg/kg). A control ADC antibody and vehicle control were also administered. Average tumor volumes with standard deviations were determined from 10 animals per group. Tumor volumes were measured twice per week until study end.
The average tumor volumes were determined from 10 animals per group. Tumor volumes were measured twice per week until study end. Tumor volumes were measured in two dimensions (length and width) using UltraCal IV calipers (Model 54 10 111, Fred V. Fowler Company; Newton, Mass.). The following formula was used with Excel, version 12.2.8 (Microsoft; Redmond, Wash.) to calculate tumor volume: Tumor Volume (mm3)=[…]
To analyze the repeated measurement of tumor volumes from the same animals over time, a mixed-modeling Linear Mixed Effects (LME) approach was used (Pinheiro et al. 2009). This approach can address both repeated measurements and a modest drop-out rate due to non-treatment-related termination of animals prior to study end. Cubic regression splines were used to fit a non-linear profile to the time courses of log 2 tumor volume at each dose level. These non-linear profiles were then related to dose within the mixed model. Tumor growth inhibition (TGI) as a percentage of vehicle was calculated as percent area under the fitted curve (AUC) per day in relation to the vehicle, using the following formula:
Using this formula, a TGI value of 100% indicates tumor stasis, of >1% but <100% indicates tumor growth delay, and of >100% indicates tumor regression. To get uncertainty intervals (UIs) for % TGI, the fitted curve and the fitted covariance matrix were used to generate a random sample as an approximation to the distribution of % TGI. The random sample is composed of 1000 simulated realizations of the fitted-mixed model, where the % TGI has been recalculated for each realization. Here, in the reported UI is the value for which 95% of the time, the recalculated values of % TGI will fall in this region given the fitted model. The 2.5 and 97.5 percentiles of the simulated distribution were used as the […] UIs.
Tumors were grown to an average size of approximately 200 mm^3, whereupon animals were randomized into groups of 10 each. […] A single dose of Hu5E9v1-ADC at either 3 mpk or 6 mpk or control, a histidine buffer #8, was administered intraveneously into the tail vein on day 1 (after three doses of RG7204).
To do this, the in vivo efficacy for various combinations of Hu5E9v1-ADC and MEKi-623 and/or MEKi-973 were evaluated against A2058 and SK-MEL-23 and IPC-298 melanoma in vivo models, performed as described above in Example 4. An appropriate methylcellulose tween vehicle control (0.5% methylcellulose, 0.2% Tween-80 (MCT) or MEK inhibitor at doses of 1 mpk, 3 mpk or 7.5 mpk were administered orally once a day×21 days beginning on study Day 0. A single 3 mpk or 6 mpk dose of Hu5E9v1-ADC or control, a histidine buffer #8, was administered intraveneously (after two doses of a MEK inhibitor) via tail vein at study Day 1.

CCCS(=O)(=O)Nc1ccc(F)c(C(=O)c2c[nH]c3ncc(-c4ccc(Cl)cc4)cc23)c1F [RG7204, propane-1-sulfonic acid {3-[5-(4-chlorophenyl)-1H-pyrrolo[2,3-b]pyridine-3-carbonyl]-2,4-difluoro-phenyl}-amide]
ETBR total protein level vs untreated control cells (ETBR total protein; A2058 cells (BRAF V600E)): appears to increase the ETBR total protein levels
ETBR total protein level vs untreated control cells (ETBR total protein; COLO 829 cells (BRAF V600E)): appears to increase the ETBR total protein levels
ETBR total protein level vs untreated control cells (ETBR total protein; IPC-298 cells (BRAF wild-type, RAS mutant)): does not appear to increase ETBR levels
ETBR total protein level vs untreated control cells (ETBR total protein; UACC-257X2.2 cells): appears to increase the ETBR total protein levels
single agent efficacy (A2058 melanoma xenograft; 10 mg/kg RG7204 alone, orally twice a day 21 days): did not show single agent efficacy
% TGI Single Agent BRAFi vs. control (A2058 melanoma xenograft; BRAFi Qdx21 10 mg/kg): 13%
% TGI Single Agent BRAFi vs. control (A2058 melanoma xenograft; BRAFi Qdx21 30 mg/kg): 38%
